Source: ChEMBL document CHEMBL3097995, “NAD-based inhibitors with anticancer potential” (Bioorg Med Chem Lett, 2014)

Tests used:
K562 = assay: Antiproliferative activity against human K562 cells; type: functional, cell-based
DU-145 = assay: Antiproliferative activity against human DU145 cells; type: functional, cell-based
[1] = target: Inosine-5'-monophosphate dehydrogenase 1 (Homo sapiens, UniProt P20839); assay: Inhibition of IMPDH1 (unknown origin)
HL-60 = assay: Antiproliferative activity against human HL60 cells; type: functional, cell-based
PC-3 = assay: Antiproliferative activity against human PC3 cells; type: functional, cell-based
[2] = Drug degradation in human plasma after 24 hrs; type: ADME, cell-free; conditions: read-out: Drug degradation
[3] = target: Inosine-5'-monophosphate dehydrogenase 2 (Homo sapiens, UniProt P12268); assay: Inhibition of IMPDH2 (unknown origin)
HeLa = assay: Antiproliferative activity against human HeLa cells; type: functional, cell-based
HT-29 = assay: Antiproliferative activity against human HT-29 cells; type: functional, cell-based
Homo sapiens = species on record: Homo sapiens; assay: Selectivity ratio of Ki for IMPDH2 (unknown origin) to Ki for IMPDH1 (unknown origin)
[4] = Binding affinity to human IMPDH

Sequence of Inosine-5'-monophosphate dehydrogenase 1 (P20839 whole entry): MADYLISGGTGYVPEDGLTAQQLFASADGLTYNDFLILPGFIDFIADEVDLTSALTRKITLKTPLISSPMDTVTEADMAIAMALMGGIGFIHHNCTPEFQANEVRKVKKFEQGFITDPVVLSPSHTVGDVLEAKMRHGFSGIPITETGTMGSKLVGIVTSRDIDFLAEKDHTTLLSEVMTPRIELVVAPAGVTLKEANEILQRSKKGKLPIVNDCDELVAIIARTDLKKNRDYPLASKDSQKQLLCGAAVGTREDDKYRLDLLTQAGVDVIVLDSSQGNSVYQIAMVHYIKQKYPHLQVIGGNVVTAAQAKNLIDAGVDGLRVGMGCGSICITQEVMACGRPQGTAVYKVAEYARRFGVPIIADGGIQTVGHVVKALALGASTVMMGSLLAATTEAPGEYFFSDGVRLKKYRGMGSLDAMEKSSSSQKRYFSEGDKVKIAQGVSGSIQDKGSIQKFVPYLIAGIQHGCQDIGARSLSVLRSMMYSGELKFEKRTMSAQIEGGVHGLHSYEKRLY

SMILES: COc1c(C)c2c(c(O)c1C/C=C(\C)CCC(=O)OC[C@H]1O[C@@H](n3cnc4c(N)ncnc43)[C@H](O)[C@@H]1O)C(=O)OC2
- IC50 (K562): 500 nM
- IC50 (DU-145): 5800 nM
- Ki [1]: 163 nM
- IC50 (HL-60): 9300 nM
- IC50 (PC-3): 20000 nM
- metabolised at 24 h [2]: 20%
- Ki [3]: 102 nM

SMILES: COc1c(C)c2c(c(O)c1CCOP(=O)(O)CP(=O)(O)OC[C@H]1O[C@@H](n3cnc4c(N)nc(-c5ccncc5)nc43)[C@H](O)[C@@H]1O)C(=O)OC2
- IC50 (HeLa): 1000 nM
- IC50 (HT-29): 2000 nM
- IC50 (K562): 400 nM
- Ratio Ki (Homo sapiens): 23
- Ki [1]: 0.6 nM
- Ki [3]: 14 nM

SMILES: COc1c(C)c2c(c(O)c1C/C=C(\C)CCC(=O)O)C(=O)OC2 [MYCOPHENOLIC ACID]
- Ki [4]: 10 nM
